In patent US9249125B2, “Pyrazole derivatives as p38 MAP inhibitors” (RESPIVERT LIMITED, priority 2012, dated 2016):

Legend:
[1] = tested on: LPS-induced TNFα release in d-U937 cells; experiment: LPS-induced TNFα release in d-U937 cells; format: cell-based; settings: Homo sapiens, dU937, relative to 10 μg/mL BIRB796, read-out: LPS Induced Release of Cytokine in d-937 Cells TNFα REC50
In short: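 Sandwich ELISA of culture supernatant gives TNFα and IL-8 levels after a 4 hr challenge with LPS (0.1 μg/mL, E. coli O111:B4). Before stimulation, macrophage-like U937 cells, obtained by 48–72 hr in PMA at 100 ng/mL, sit with compound for 2 hr. Relative EC50 is derived from concentration-response data.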

RSV A2 = experiment: RSV induced F-protein expression in primary bronchial epithelial cells; format: cell-based, respiratory syncytical virus; settings: for RSV induced F-protein in HBECs % Inhibition Observed: screened at concentrations up to 0.04 μg/mL; for IC50: human respiratory syncytial virus, Primary bronchial epithelial cell, read-out: RSV induced F-protein in HBECs IC50
Procedure: Normal human bronchial epithelial cells (NHBEC) grown in 96 well plates are infected with RSV A2 (Strain A2, HPA, Salisbury, UK) at an MOI of 0.001 in the LHC8 Media:RPMI-1640 (50:50) containing 15 mM magnesium chloride and incubated for 1 hr at 37° C. for adsorption. The cells are then washed with PBS (3×200 μL), fresh media (200 μL) is added and incubation continued for 4 days. Where appropriate, cells are pre-incubated with the compound or DMSO for 2 hr, and then added again after washout of the virus.
The cells are fixed with 4% formaldehyde in PBS solution (50 μL) for 20 min, washed with WB (3×200 μL), (washing buffer, PBS including 0.5% BSA and 0.05% Tween-20) and incubated with blocking solution (5% condensed milk in PBS) for 1 hr. Cells are then washed with WB (3×200 μL) and incubated for 1 hr at RT with anti-RSV (2F7) F-fusion protein antibody (40 μL) (mouse monoclonal, lot 798760, Cat. No. ab43812, Abcam) in 5% BSA in PBS-tween. After washing, cells are incubated with an HRP-conjugated secondary antibody solution (50 μL) in 5% BSA in PBS-Tween (lot 00053170, Cat. No. P0447, Dako) and then TMB substrate (50 μL) (substrate reagent pack, lot 269472, Cat. No. DY999, R&D Systems, Inc.) was added. This reaction is stopped by the addition of 2N H2SO4 (50 μL) and the resultant signal is determined colorimetrically (OD: 450 nm with a reference wavelength of 655 nm) in a microplate reader (Varioskan® Flash, ThermoFisher Scientific).
Cells are then washed and a 2.5% crystal violet solution (50 μL) (lot 8656, Cat. No. PL7000, Pro-Lab Diagnostics) is applied for 30 min. After washing with WB, 1% SDS in distilled water (100 μL) is added to each well, and plates are shaken lightly on the shaker for 1 hr prior to reading the absorbance at 595 nm. The measured OD450-655 readings are corrected to the cell number by dividing the OD450-655 by the OD595 readings. The percentage inhibition for each well is calculated and the IC50 value is calculated from the concentration-response curve generated from the serial dilutions of compound.

PBMC cells = experiment: Cell mitosis assay; format: cell-based, human
Procedure: Peripheral blood mononucleocytes (PBMCs) from healthy subjects are separated from whole blood (Quintiles, London, UK) using a density gradient (Histopaque-1077, Sigma-Aldrich, Poole, UK). The PBMCs (3 million cells per sample) are subsequently treated with 2% PHA (Sigma-Aldrich, Poole, UK) for 48 hr, followed by a 20 hr exposure to varying concentrations of test compounds. At 2 hr before collection, PBMCs are treated with demecolcine (0.1 μg/mL) (Invitrogen, Paisley, UK,) to arrest cells in metaphase. To observe mitotic cells, PBMCs are permeabilised and fixed by adding Intraprep (50 μL) (Beckman Coulter, France), and stained with anti-phospho-histone 3 (0.26 ng/L) (#9701; Cell Signalling, Danvers, Mass.) and propidium iodide (1 mg/mL) (Sigma-Aldrich, Poole, UK,) as previously described (Muehlbauer P. A. and Schuler M. J., Mutation Research, 2003, 537:117-130). Fluorescence is observed using an ATTUNE flow cytometer (Invitrogen, Paisley, UK), gating for lymphocytes.

[2] = tested on: LPS-induced airways neutrophilia in mice; experiment: LPS-induced neutrophil accumulation in mice; format: in vivo; settings: Test Substance at 0.2 mg/mL, intra tracheal, dosed 8 hr pre-LPS challenge
Procedure: Non-fasted Balb/c mice are dosed by the intra tracheal route with either vehicle, or the test substance at the indicated times (within the range 2-8 hr) before stimulation of the inflammatory response by application of an LPS challenge. At T=0, mice are placed into an exposure chamber and exposed to LPS (7.0 mL, 0.5 mg/mL solution in PBS) for 30 min). After a further 8 hr the animals are anesthetized, their tracheas cannulated and BALF extracted by infusing and then withdrawing from their lungs 1.0 mL of PBS via the tracheal catheter. Total and differential white cell counts in the BALF samples are measured using a Neubaur haemocytometer. Cytospin smears of the BALF samples are prepared by centrifugation at 200 rpm for 5 min at RT and stained using a DiffQuik stain system (Dade Behring). Cells are counted using oil immersion microscopy. Data for neutrophil numbers in BAL are shown as mean±S.E.M. (standard error of the mean). The percentage inhibition of neutrophil accumulation is calculated for each treatment relative to vehicle treatment.

HRV16 = HRV16 induced CPE in MRC5 cells; format: cell-based, human rhinovirus; settings: for IC50: Human rhinovirus sp., HRV16, MRC5, read-out: HRV induced CPE in MRC5 Cells IC50
Procedure: The supernatants are aspirated, and then fresh media added followed by incubation for 4 days. Where appropriate, cells are pre-incubated with compound or DMSO for 2 hr, and the compounds and DMSO added again after washout of the virus.
Supernatants are aspirated and incubated with methylene blue solution (100 μL, 2% formaldehyde, 10% methanol and 0.175% Methylene Blue) for 2 hr at RT. […] The percentage inhibition for each well is calculated. The IC50 value is calculated from the concentration-response curve generated by the serial dilutions of the test compounds.

Row | SMILES | EC50 [1] [nM] | RSV induced F-protein in HBECs % Inhibition Observed (RSV A2) [%] | Mitosis Assay % inhibition in PBMC cells at 5 μg/mL (PBMC cells) [%] | other results
1 | Cc1ccc(-n2nc(C(C)(C)C)cc2NC(=O)Nc2ccc(Oc3ccnc(Nc4ccc5c(c4)ncn5C)n3)c3ccccc23)cc1 [Example 4, 1-(3-(tert-Butyl)-1-(p-tolyl)-1H-pyrazol-5-yl)-3-(4-((2-((1-methyl-1H-benzo[d]imidazol-5-yl)amino)pyrimidin-4-yl)oxy)naphthalen-1-yl)urea] | 2.4 | 96 |  | 
2 | Cc1ccc(-n2nc(C(C)(C)C)cc2NC(=O)Nc2ccc(Oc3ccnc(Nc4cccc5cc[nH]c45)n3)c3ccccc23)cc1 [Example 17] | 8.7 | 65 |  | 
3 | Cc1ccc(-n2nc(C(C)(C)C)cc2NC(=O)Nc2ccc(Oc3ccnc(Nc4ccc5c(ccn5C)c4)n3)c3ccccc23)cc1 [Example 18, 1-(3-(tert-butyl)-1-(p-tolyl)-1H-pyrazol-5-yl)-3-(4-((2-((1-methyl-1H-indol-5-yl)amino)pyrimidin-4-yl)oxy)naphthalen-1-yl)urea] | 2.8 | 56 |  | 
4 | Cc1ccc(-n2nc(C(C)(C)C)cc2NC(=O)Nc2ccc(Oc3ccnc(Nc4ccc5[nH]ncc5c4)n3)c3ccccc23)cc1 [Example 22, 1-(4-((2-((1H-indazol-5-yl)amino)pyrimidin-4-yl)oxy)naphthalen-1-yl)-3-(3-(tert-butyl)-1-(p-tolyl)-1H-pyrazol-5-yl)urea] | 4.7 |  | 52.7 | IC50 (RSV A2): 4.6 nM; % Inhibition of neutrophil accumulation in BAL [2]: 57%; Neutrophil numbers in BAL (+/−SEM) [2]: 7.0 ± 1.2 ×10^5/mL
5 | Cc1ccc(-n2nc(C(C)(C)C)cc2NC(=O)Nc2ccc(Oc3cc(Nc4ccc5[nH]ncc5c4)ncn3)c3ccccc23)cc1 [Example 23, 1-(4-((6-((1H-indazol-5-yl)amino)pyrimidin-4-yl)oxy)naphthalen-1-yl)-3-(3-(tert-butyl)-1-(p-tolyl)-1H-pyrazol-5-yl)urea] | 3.3 |  | 70.7 | IC50 (HRV16): 3 nM
6 | Cc1ccc(-n2nc(C(C)(C)C)cc2NC(=O)Nc2ccc(Oc3ccnc(Nc4ccc5cn[nH]c5c4)n3)c3ccccc23)cc1 [Example 24, 1-(4-((2-((1H-indazol-6-yl)amino)pyrimidin-4-yl)oxy)naphthalen-1-yl)-3-(3-(tert-butyl)-1-(p-tolyl)-1H-pyrazol-5-yl)urea] | 4.7 | 45 |  | 
7 | Cc1ccc(-n2nc(C(C)(C)C)cc2NC(=O)Nc2ccc(Oc3ccnc(Nc4ccc5[nH]cnc5c4)n3)c3ccccc23)cc1 [Example 30, 1-(4-((2-((1H-benzo[d]imidazol-5-yl)amino)pyrimidin-4-yl)oxy)naphthalen-1-yl)-3-(3-(tert-butyl)-1-(p-tolyl)-1H-pyrazol-5-yl)urea] | 1.8 | 57 |  | 
8 | Cc1ccc(-n2nc(C(C)(C)C)cc2NC(=O)Nc2ccc(Oc3ccnc(Nc4ccc5ncn(C)c5c4)n3)c3ccccc23)cc1 [Example 31, 1-(3-(tert-butyl)-1-(p-tolyl)-1H-pyrazol-5-yl)-3-(4-((2-((1-methyl-1H-benzo[d]imidazol-6-yl)amino)pyrimidin-4-yl)oxy)naphthalen-1-yl)urea] | 0.3 | 73 |  | 
9 | Cc1ccc(-n2nc(C(C)(C)C)cc2NC(=O)Nc2ccc(Oc3ccnc(Nc4ccc5scnc5c4)n3)c3ccccc23)cc1 [Example 34, 1-(4-((2-(benzo[d]thiazol-5-ylamino)pyrimidin-4-yl)oxy)naphthalen-1-yl)-3-(3-(tert-butyl)-1-(p-tolyl)-1H-pyrazol-5-yl)urea] | 0.9 | 74 |  | 
10 | Cc1ccc(-n2nc(C(C)(C)C)cc2NC(=O)Nc2ccc(Oc3ccnc(Nc4ccc5ncsc5c4)n3)c3ccccc23)cc1 [Example 35, 1-(4-((2-(benzo[d]thiazol-6-ylamino)pyrimidin-4-yl)oxy)naphthalen-1-yl)-3-(3-(tert-butyl)-1-(p-tolyl)-1H-pyrazol-5-yl)urea] | 11 | 71 |  | HRV induced CPE in MRC5 Cells % Inhibition Observed (HRV16; MRC5 cells, screened at concentrations up to 0.32 ng/mL): 100%
11 | COc1ccc(-n2nc(C(C)(C)C)cc2NC(=O)Nc2ccc(Oc3ccnc(Nc4ccc5[nH]ncc5c4)n3)c3ccccc23)cc1 [Example 40, 1-(4-((2-((1H-indazol-5-yl)amino)pyrimidin-4-yl)oxy)naphthalen-1-yl)-3-(3-(tert-butyl)-1-(4-methoxyphenyl)-1H-pyrazol-5-yl)urea] | 1.5 |  | 30.5 | IC50 (RSV A2): 4.8 nM
12 | Cc1cc(Nc2nccc(Oc3ccc(NC(=O)Nc4cc(C(C)(C)C)nn4-c4cccc(OCCN5CCOCC5)c4)c4ccccc34)n2)cc2cn[nH]c12 [Example 56, 1-(3-(tert-butyl)-1-(3-(2-morpholinoethoxy)phenyl)-1H-pyrazol-5-yl)-3-(4-((2-((7-methyl-1H-indazol-5-yl)amino)pyrimidin-4-yl)oxy)naphthalen-1-yl)urea] | 4.9 |  |  | IC50 (HRV16): 6.7 nM; % Inhibition of neutrophil accumulation in BAL [2]: 38%; Neutrophil numbers in BAL (+/−SEM) [2]: 10.2 ± 1.9 ×10^5/mL
13 | Cc1cc(Nc2nccc(Oc3ccc(NC(=O)Nc4cc(C(C)(C)C)nn4-c4ccc(=O)n(CCN5CCOCC5)c4)c4ccccc34)n2)cc2cn[nH]c12 [Example 89, 1-(3-(tert-butyl)-1-(1-(2-morpholinoethyl)-6-oxo-1,6-dihydropyridin-3-yl)-1H-pyrazol-5-yl)-3-(4-((2-((7-methyl-1H-indazol-5-yl)amino)pyrimidin-4-yl)oxy)naphthalen-1-yl)urea] | 10.8 |  | 26.7 | IC50 (HRV16): 9.6 nM
